The text below walks through data of ChEMBL document CHEMBL3046698, “Synergistic application of target structure-based alignment and 3D-QSAR study of protein tyrosine phosphatase 1B (PTP1B) inhibitors” (Med Chem Res, 2011).

One may read the pKi as −log10 of the Ki, conventionally taken in molar units.

pKi: −log10 of the molar value. Where “and” joins values, the source holds several entries; their conditions need not be identical. Equal values may be shown once.

This experiment addresses T1, Tyrosine-protein phosphatase non-receptor type 1 (Homo sapiens, UniProt P18031).
T1 sequence (P18031 whole entry): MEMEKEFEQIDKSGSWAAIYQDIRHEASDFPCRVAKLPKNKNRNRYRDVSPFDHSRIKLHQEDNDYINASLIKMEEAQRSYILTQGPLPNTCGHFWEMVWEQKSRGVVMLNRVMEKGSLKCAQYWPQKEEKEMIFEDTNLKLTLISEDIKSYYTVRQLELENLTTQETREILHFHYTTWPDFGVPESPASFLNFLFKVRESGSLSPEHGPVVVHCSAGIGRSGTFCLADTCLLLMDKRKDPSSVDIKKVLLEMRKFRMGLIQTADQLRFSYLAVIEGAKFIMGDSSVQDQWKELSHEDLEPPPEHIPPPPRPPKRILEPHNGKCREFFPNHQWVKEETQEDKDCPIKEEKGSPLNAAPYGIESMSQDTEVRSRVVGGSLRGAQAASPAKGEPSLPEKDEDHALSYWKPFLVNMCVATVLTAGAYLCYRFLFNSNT
Description: Inhibition of PTP1B (unknown origin)
For `CCc1cc(C[C@H](NC(C)=O)C(=O)NCCCCC(=O)NC(Cc2ccccc2)C(N)=O)ccc1N(C(=O)C(=O)O)c1ccccc1C(=O)O` (stereo partly specified), the pKi is 5.89.

Consider `CCc1cc(C[C@H](NC(C)=O)C(=O)N[C@H](CCSC)C(=O)O)ccc1N(C(=O)C(=O)O)c1ccccc1C(=O)O`, for which the pKi is 5.76 and 5.77.

For the molecule `CC(=O)C(=O)N(c1ccccc1CCO)c1ccccc1C(=O)O`, the pKi is 4.77.

Take `CC(=O)C(=O)N(c1ccccc1C(=O)O)c1ccccc1C(C)C`: the pKi was 4.45 and 4.46.

With `COC(=O)c1c(O)cccc1OCCCCNC(=O)C(Cc1ccc(N(CC(C(=O)O)c2ccccc2)C(=O)C(=O)O)cc1)NC(=O)OC(C)(C)C` (stereo unspecified), the pKi was 4.82.

Take `CC(=O)C(=O)N(c1ccccc1Cc1ccccc1)c1ccccc1C(=O)O`: the pKi was 4.62.

Regarding `CC(=O)C(=O)N(c1ccccc1C(=O)O)c1cccc(C)c1C`, the pKi was 4.03.

In the case of `CC(=O)C(=O)N(c1ccccc1C(=O)O)c1ccccc1N1CCCCC1`, the pKi was 4.85.

Take `COC(=O)c1c(O)cccc1OCCCCNC(=O)[C@H](Cc1ccc(OC(C(=O)O)C(=O)NC2CC2)cc1)NC(=O)OC(C)(C)C` (stereo partly specified): the pKi is 5.07.

Consider `CCc1cc(C[C@H](NC(C)=O)C(=O)NCc2ccc(OC)cc2)ccc1N(C(=O)C(=O)O)c1ccccc1C(=O)O`, for which the pKi was 5.32 and 5.33.

`COC(=O)c1c(O)cccc1OCCCCNC(=O)[C@H](Cc1ccc(OC(C(N)=O)C(=O)O)cc1)NC(=O)OC(C)(C)C` (stereo partly specified): the negative logarithm of the Ki (pKi) is 4.86.

For `CC(=O)C(=O)N(c1ccccc1C(=O)O)c1cccc2c1CCCC2`, the pKi was 4.13.

Consider `CCc1ccccc1N(C(=O)C(C)=O)c1ccccc1C(=O)O`, for which the pKi is 4.22.

`CC(=O)C(=O)N(c1ccc2ccccc2c1)c1ccccc1C(=O)O` had a pKi of 4.41.

In the case of `CC(=O)C(=O)N(c1ccccc1/C=C/C(N)=O)c1ccccc1C(=O)O`, the negative logarithm of the Ki (pKi) was 4.96.

Molecule `CCc1cc(C[C@H](NC(C)=O)C(=O)NCc2ccc(Cl)cc2)ccc1N(C(=O)C(=O)O)c1ccccc1C(=O)O` gave a pKi of 5.92.

As to `COC(=O)c1c(O)cccc1OCCCCNC(=O)[C@H](Cc1ccc(OC(C)C(=O)O)c(C(=O)O)c1)NC(=O)[C@H](Cc1ccccc1)NC(=O)OC(C)(C)C` (stereo partly specified), the pKi was 6.79.

Take `CC(=O)C(=O)N(c1ccccc1C(=O)O)c1cccc2ccccc12`: the pKi was 4.62.

`CCC(CC(=O)O)N(C(=O)C(=O)O)c1ccc(CC(NC(=O)OC(C)(C)C)C(=O)NCCCCOc2cccc(O)c2C(=O)OC)cc1` (stereo unspecified) had a pKi of 5.74.

For `CCc1cc(C[C@H](NC(C)=O)C(=O)NCCCCC(=O)NCCc2ccccc2)ccc1N(C(=O)C(=O)O)c1ccccc1C(=O)O`, the pKi is 5.47.

Take `CC(=O)C(=O)N(c1ccccc1C(=O)O)c1cccc2ccc(O)cc12`: the pKi was 4.77.
